# Results as given in patent US9676789B2, “Aminated derivative of homoharringtonine, preparation method therefor, and application thereof” (HANGZHOU BENSHENG PHARMACEUTICAL CO., LTD., priority 2011, dated 2017).
# How the values were obtained:
# [1] = tested on: RPMI8226 (multiple myeloma); test: MTT multiple myeloma cell growth inhibition, 72 h; type: cell-based, human; conditions: Homo sapiens, RPMI-8226, RPMI8226, 72 h; for IC50: read-out: IC50; for IC90: read-out: IC90
# Protocol: Multiple myeloma and lymphoma cell lines: RPMI8226 (multiple myeloma), purchased from Fuxiang Bio-tech Co. Ltd., Shanghai, China.
# (§1) Obtaining 6000 well-growing leukemia cells and inoculating them into wells of a 96-well cell culture plate. The culture medium is the 1640 cell culture medium containing 10% fetal bovine serum. After adding the homoharringtonine derivatives of different concentrations and mixing uniformly, placing the plate in a carbon dioxide cell incubator (5% CO2) at 37° C. and incubating for 72 hours. Then the viable cell concentration is determined by the MTT method.
# [2] = tested on: Huh7 (human liver cancer cell); test: MTT solid tumor cell growth inhibition, 72 h; type: cell-based; conditions: Homo sapiens, Huh-7, Huh7, 72 h; for IC50: read-out: IC50; for IC90: read-out: IC90
# Protocol: (§2) Human solid tumor cell lines: Hep-2 ([…]), A549 (human lung cancer), CaES-17 (esophageal cancer cell), PC-3 (prostate cancer), CNE (nasopharyngeal carcinoma cell), and SK-OV-3 (ovarian cancer cell), all of which are purchased from China Center For Type Culture Collection; RKO (human colon adenocarcinoma cell), MGC 803 (human gastric cancer cell), MG63 (osteosarcoma) and U87 MG (malignant glioma cell), all of which are purchased from Fuxiang Bio-tech Co. Ltd., Shanghai, China; PANC-1 (pancreatic cancer), Huh7 (human liver cancer cell), Becap37 (human breast cancer cell), and Hela (human cervical cancer cell), all of which are donated by Cancer Research Institute of Zhejiang University, China.
# (§3) Obtaining 4000 well-growing human solid tumor cells and inoculating them into wells of a 96-well cell culture plate. The culture medium is DMEM High Glucose cell culture medium containing 10% fetal bovine serum. The plate is placed in a carbon dioxide cell incubator (5% CO2) at 37° C. and incubating for 24 hours. After adding the homoharringtonine derivatives of different concentration and mixing uniformly, the plate is placed in a carbon dioxide cell incubator (5% CO2) at 37° C. and incubating for 72 hours. Then the viable cell concentration is determined by the MTT method and the cell viability (%) after drug treatment is calculated. In this experiment, the cell viability of control group (not treated with any compound) is set as 100%.
# A549 (human lung cancer) = test: MTT solid tumor cell growth inhibition, 72 h; type: cell-based; conditions: Homo sapiens, A549, 72 h; for IC50: read-out: IC50; for IC90: read-out: IC90
# Protocol: as §2, §3
# [3] = tested on: RKO (human colon adenocarcinoma cell); test: MTT solid tumor cell growth inhibition, 72 h; type: cell-based; conditions: Homo sapiens; for IC50: read-out: IC50; for IC90: read-out: IC90
# Protocol: as §2, §3
# [4] = tested on: Becap37 (human breast cancer cell); test: MTT solid tumor cell growth inhibition, 72 h; type: cell-based; conditions: Homo sapiens, Becap37, 72 h; for IC50: read-out: IC50; for IC90: read-out: IC90
# Protocol: as §2, §3
# [5] = tested on: K562/adr (drug-resistant, chronic myeloid leukemia, CML); test: MTT leukemia cell growth inhibition, 72 h; type: cell-based, human; conditions: Homo sapiens, K562/Adr; for IC50: read-out: IC50; for IC90: read-out: IC90
# Excerpt: (§4) Leukemia cell lines: K562/adr (drug-resistant, chronic myeloid leukemia, CML), NB4 (acute promyelocytic leukemia, AML), Kasumi-1 (acute myeloid leukemia M2 type, AML-M2), Jurkat (acute lymphoblastic leukemia, ALL), all of which are donated by Cancer Research Institute of Zhejiang University, China; and H9 (acute lymphoblastic leukemia, ALL), which is purchased from China Center for Type Culture Collection.
# as §1, with “method. In this experiment, the cell viability in control group (not treated with any compound) is set as 100%.” for “method.”
# [6] = tested on: H9 (acute lymphoblastic leukemia, ALL); test: MTT leukemia cell growth inhibition, 72 h; type: cell-based, human; conditions: Homo sapiens, H9, 72 h; for IC50: read-out: IC50; for IC90: read-out: IC90
# Excerpt: as §4
# as §1, with “method. In this experiment, the cell viability in control group (not treated with any compound) is set as 100%.” for “method.”
# [7] = tested on: Jurkat (acute lymphoblastic leukemia, ALL); test: MTT leukemia cell growth inhibition, 72 h; type: cell-based, human; conditions: Homo sapiens; for IC50: read-out: IC50; for IC90: read-out: IC90
# Excerpt: as §4
# as §1, with “method. In this experiment, the cell viability in control group (not treated with any compound) is set as 100%.” for “method.”
# [8] = tested on: Kasumi-1 (acute myeloid leukemia M2 type, AML-M2); test: MTT leukemia cell growth inhibition, 72 h; type: cell-based, human; conditions: Homo sapiens, Kasumi-1, 72 h; for IC50: read-out: IC50; for IC90: read-out: IC90
# Excerpt: as §4
# as §1, with “method. In this experiment, the cell viability in control group (not treated with any compound) is set as 100%.” for “method.”
# [9] = tested on: NB4 (acute promyelocytic leukemia, AML); test: MTT leukemia cell growth inhibition, 72 h; type: cell-based, human; conditions: Homo sapiens, NB4, 72 h; for IC50: read-out: IC50; for IC90: read-out: IC90
# Excerpt: as §4
# as §1, with “method. In this experiment, the cell viability in control group (not treated with any compound) is set as 100%.” for “method.”
# [10] = tested on: PANC-1 (pancreatic cancer); test: MTT solid tumor cell growth inhibition, 72 h; type: cell-based, human; conditions: Homo sapiens, PANC-1, 72 h; for IC50: read-out: IC50; for IC90: read-out: IC90
# Protocol: as §2, §3
# MG63 (osteosarcoma) = test: MTT solid tumor cell growth inhibition, 72 h; type: cell-based, human; conditions: Homo sapiens, MG 63, 72 h; for IC50: read-out: IC50; for IC90: read-out: IC90
# Protocol: as §2, §3
# [11] = tested on: MGC 803 (human gastric cancer cell); test: MTT solid tumor cell growth inhibition, 72 h; type: cell-based; conditions: Homo sapiens, MGC 803, 72 h; for IC50: read-out: IC50; for IC90: read-out: IC90
# Protocol: as §2, §3
Structure (SMILES),IC50 [1],IC90 [1],IC50 [2],IC90 [2],IC50 (A549 (human lung cancer)),IC90 (A549 (human lung cancer)),IC50 [3],IC90 [3],IC50 [4],IC90 [4],IC50 [5],IC90 [5],IC50 [6],IC90 [6],IC50 [7],IC90 [7],IC50 [8],IC90 [8],IC50 [9],IC90 [9],other results
COC1=C[C@]23CCCN2CCc2cc4c(cc2[C@@H]3[C@@H]1OC(=O)[C@@](O)(CCCC(C)(C)O)CC(=O)N1CCN(C)CC1)OCO4 [BS-HH-009],3.6 µg/mL,16 µg/mL,6.7 µg/mL,> 16 µg/mL,10.2 µg/mL,> 16 µg/mL,1.46 µg/mL,5.72 µg/mL,3.09 µg/mL,> 16 µg/mL,> 16 µg/mL,> 16 µg/mL,8 µg/mL,> 16 µg/mL,3 µg/mL,> 16 µg/mL,8.54 µg/mL,> 16 µg/mL,2.97 µg/mL,11.2 µg/mL,IC50 [10]: 16 µg/mL; IC90 [10]: > 16 µg/mL; IC50 (MG63 (osteosarcoma)): 1.72 µg/mL; IC90 (MG63 (osteosarcoma)): > 16 µg/mL
COC1=C[C@]23CCCN2CCc2cc4c(cc2[C@@H]3[C@@H]1OC(=O)[C@@](O)(CCCC(C)(C)O)CC(=O)N1CCOCC1)OCO4 [BS-HH-011],6.71 µg/mL,> 16 µg/mL,16 µg/mL,> 16 µg/mL,> 16 µg/mL,> 16 µg/mL,4 µg/mL,> 16 µg/mL,11.3 µg/mL,> 16 µg/mL,> 16 µg/mL,> 16 µg/mL,> 16 µg/mL,> 16 µg/mL,6.7 µg/mL,> 16 µg/mL,8.28 µg/mL,> 16 µg/mL,3.22 µg/mL,9.54 µg/mL,IC50 [10]: > 16 µg/mL; IC90 [10]: > 16 µg/mL; IC50 (MG63 (osteosarcoma)): 6.33 µg/mL; IC90 (MG63 (osteosarcoma)): > 16 µg/mL
COC1=C[C@]23CCCN2CCc2cc4c(cc2[C@@H]3[C@@H]1OC(=O)[C@@](O)(CCCC(C)(C)O)CC(=O)N1CCSCC1)OCO4 [BS-HH-014],2.43 µg/mL,16 µg/mL,4 µg/mL,> 16 µg/mL,9.79 µg/mL,> 16 µg/mL,1.25 µg/mL,5.36 µg/mL,6.89 µg/mL,> 16 µg/mL,> 16 µg/mL,> 16 µg/mL,8.25 µg/mL,> 16 µg/mL,2 µg/mL,> 16 µg/mL,1.33 µg/mL,8.61 µg/mL,1.29 µg/mL,3.7 µg/mL,IC50 [11]: 2.92 µg/mL; IC90 [11]: 15.5 µg/mL; IC50 [10]: 8 µg/mL; IC90 [10]: > 16 µg/mL; IC50 (MG63 (osteosarcoma)): 6.24 µg/mL; IC90 (MG63 (osteosarcoma)): > 16 µg/mL
COC1=C[C@]23CCCN2CCc2cc4c(cc2[C@@H]3[C@@H]1OC(=O)[C@@](O)(CCCC(C)(C)O)CC(=O)N1CC=CC1)OCO4 [BS-HH-018],0.6 µg/mL,5.66 µg/mL,2.5 µg/mL,> 16 µg/mL,4.09 µg/mL,> 16 µg/mL,0.34 µg/mL,1.5 µg/mL,1.7 µg/mL,> 16 µg/mL,7.77 µg/mL,> 16 µg/mL,2.69 µg/mL,> 16 µg/mL,0.88 µg/mL,16 µg/mL,0.47 µg/mL,2.32 µg/mL,0.38 µg/mL,1 µg/mL,IC50 [11]: 0.94 µg/mL; IC90 [11]: 4.96 µg/mL; IC50 [10]: 2.89 µg/mL; IC90 [10]: > 16 µg/mL; IC50 (MG63 (osteosarcoma)): 0.96 µg/mL; IC90 (MG63 (osteosarcoma)): > 16 µg/mL
